Reference: patent US7241893B2, “Thiazolinone 2-substituted quinolines” (Hoffman-La Roche Inc., priority 2004, dated 2007)

Biological target: T1, recombinant human CDK1/Cyclin B complex (Homo sapiens, UniProt P06493)
T1 construct: made in house; host or cells: High Five insect cells (baculovirus) for CDK1/GST-cyclin B; E. coli M15 for the Rb substrate
Assay: CDK1/Cyclin B kinase assay (FlashPlate or HTRF)
Assay type: biochemical
Settings: Rb protein substrate, Ki=IC50/(1+[S]/Km)
Experimental: To determine inhibition of CDK1 activity, either FlashPlate™ (NEN™-Life Science Products) assay or HTRF assay was performed. Both types of kinase assays were carried out using recombinant human CDK1/Cyclin B complex. GST-cyclinB (GST-cycB) and CDK1 cDNA clones in baculovirus vectors were provided by Dr. W. Harper at the Baylor College of Medicine, Houston, Tex. Proteins were co-expressed in High Five™ insect cells and the complex was purified on glutathione Sepharose resin (Pharmacia, Piscataway, N.J.) as previously described (Harper, J. W. et al. Cell 1993, 75, 805–816). A 6x-Histidine tagged truncated form of retinoblastoma (Rb) protein (amino acid 386–928) was used as the substrate for the CDK1/Cyclin B assay (the expression plasmid was provided by Dr. Veronica Sullivan, Department of Molecular Virology, Roche Research Centre, Welwyn Garden City, United Kingdom). The Rb protein is a natural substrate for phosphorylation by CDK1 (see Herwig and Strauss Eur. J. Biochem. Vol. 246 (1997) pp. 581–601 and the references cited therein). The expression of the 62 Kd protein was under the control of an IPTG inducible promoter in an M15 E. coli strain. Cells were lysed by sonication and purification was carried out by binding lysates at pH 8.0 to a Ni-chelated agarose column pretreated with 1 mM imidazole. The resin was then washed several times with incrementally decreasing pH buffers to pH 6.0, and eluted with 500 mM imidazole. Eluted protein was dialysed against 20 mM HEPES pH 7.5, 30% glycerol, 200 mM NaCl, and 1 mM DTT. Purified Rb fusion protein stocks were quantitated for protein concentration, aliquoted, and stored at −70° C.
For the FlashPlate kinase assay, 96-well FlashPlates were coated with Rb protein at 10 μg/ml, using 100 μl per well. Plates were incubated at 4° C. overnight or at room temperature for 3 hours on a shaker. To control for nonspecific phosphorylation, one row of wells was coated with 100 μl/well coating buffer (20 mM HEPES, 0.2 M NaCl). Plates were then washed twice with wash buffer (0.01% Tween 20 in phosphate-buffered saline). Compounds to be tested (“test compounds”) were added to the wells at 5× final concentration. Reactions were initiated by immediate addition of 40 μl reaction mix (25 mM HEPES, 20 mM MgCl2, 0.002% Tween 20, 2 mM DTT, 1 [M ATP, 4 nM 33P-ATP) and a sufficient amount of enzyme to give counts that were at least 10-fold above background. Plates were incubated at room temperature on a shaker for 30 minutes. Plates were washed four times with the wash buffer, sealed, and counted on the TopCount scintillation counter (Packard Instrument Co., Downers Grove, Ill.]. The percent inhibition of Rb phosphorylation, which is a measure of the inhibition of CDK activity, was determined according to the following formula:
[formula] where “test compound” refers to the average counts per minute of the test duplicates, “nonspecific” refers to the average counts per minute when no CDK1/Cyclin B, etc., was added, and “total” refers to the average counts per minute when no compound was added. […] The value of the inhibitor constant Ki is calculated by the following: Ki=IC50/(1+[S]/Km), where [S] is the ATP concentration and Km is Michaelis constant.
The Homogeneous Time Resolved Fluorescence (HTRF) kinase assay was carried out in 96-well polypropylene plates (BD Biosciences, Bedford, Mass.). […]

T1 sequence (P06493 whole entry): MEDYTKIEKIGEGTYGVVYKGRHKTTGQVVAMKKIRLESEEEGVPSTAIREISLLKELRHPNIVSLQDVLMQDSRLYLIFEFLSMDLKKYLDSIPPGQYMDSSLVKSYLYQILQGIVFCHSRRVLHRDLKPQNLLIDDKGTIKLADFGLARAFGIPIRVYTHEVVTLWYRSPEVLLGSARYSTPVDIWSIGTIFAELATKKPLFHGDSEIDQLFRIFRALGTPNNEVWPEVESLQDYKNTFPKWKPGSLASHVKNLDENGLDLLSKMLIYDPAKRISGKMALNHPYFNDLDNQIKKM
T1 sequence (P14635 whole entry partner): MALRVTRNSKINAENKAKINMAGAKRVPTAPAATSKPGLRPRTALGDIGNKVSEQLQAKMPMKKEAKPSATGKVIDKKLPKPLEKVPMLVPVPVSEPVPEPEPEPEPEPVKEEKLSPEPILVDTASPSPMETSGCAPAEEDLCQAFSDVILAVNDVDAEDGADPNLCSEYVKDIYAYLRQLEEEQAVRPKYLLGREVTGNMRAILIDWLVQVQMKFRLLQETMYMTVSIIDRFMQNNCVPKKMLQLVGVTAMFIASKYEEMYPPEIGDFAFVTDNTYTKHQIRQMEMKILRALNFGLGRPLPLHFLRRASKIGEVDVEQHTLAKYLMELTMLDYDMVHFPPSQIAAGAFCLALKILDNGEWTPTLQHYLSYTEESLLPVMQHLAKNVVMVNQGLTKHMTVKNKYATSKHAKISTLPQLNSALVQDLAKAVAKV

Compound	Ki
CCOc1cc(NC(C)=O)nc2ccc(/C=C3\SC(NCC4COCCO4)=NC3=O)cc12 (centres unmarked) [Example 9]	3.24 µM
CCOc1cc(NC(C)=O)nc2ccc(/C=C3\SC(NC4CC4)=NC3=O)cc12 [Example 5, N-[6-(2-Cyclopropylamino-4-oxo-4H-thiazol-5-ylidenemethyl)-4-ethoxy-quinolin-2-yl]-acetamide]	0.085 µM
Nc1ccc2cc(/C=C3\SC(N[C@@H]4C[C@H]4c4ccccc4)=NC3=O)ccc2n1 [Example 1, 5-[1-(2-Amino-quinolin-6-yl)-meth-(Z)-ylidene]-2-((1R,2S)-2-phenyl-cyclopropylamino)-thiazol-4-one; compound with trifluoro-acetic acid]	0.023 µM
CCOc1cc(NC(C)=O)nc2ccc(/C=C3\SC(N)=NC3=O)cc12 [Example 7, N-(6-{2-Amino-4-oxo-4H-thiazol-5-ylidenemethyl}-4-ethoxy-quinolin-2-yl)-acetamide]	0.097 µM
CCOc1cc(N)nc2ccc(/C=C3\SC(N)=NC3=O)cc12 [Example 3, 2-Amino-5-(2-amino-4-ethoxy-quinolin-6-ylmethylene)-thiazol-4-one]	0.03 µM
